Test results as given in PMC5681660, “Reduced hepatitis B and D viral entry using clinically applied drugs as novel inhibitors of the bile acid transporter NTCP” (Scientific Reports, 2017).
Where a name gives a salt, the structure may show the parent alone. Read-outs that look alike come from different tables or passages of the source.

Legend:
[1] = molecular target: T1, human NTCP (Homo sapiens, UniProt Q14973); assay: Screening fluorescent competitive Myrcludex B-FITC binding assay (96-well, 10 µM drug)
T1 sequence (Q14973 1-349): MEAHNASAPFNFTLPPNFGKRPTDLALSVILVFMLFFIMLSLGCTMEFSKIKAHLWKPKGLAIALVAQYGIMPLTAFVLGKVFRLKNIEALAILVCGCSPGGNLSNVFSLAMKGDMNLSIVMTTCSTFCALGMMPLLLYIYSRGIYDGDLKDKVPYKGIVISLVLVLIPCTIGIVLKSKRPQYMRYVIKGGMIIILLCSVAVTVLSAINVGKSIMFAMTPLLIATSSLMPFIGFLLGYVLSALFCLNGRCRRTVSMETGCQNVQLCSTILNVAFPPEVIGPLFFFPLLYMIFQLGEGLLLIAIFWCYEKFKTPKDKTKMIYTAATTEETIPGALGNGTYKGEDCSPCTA

[2] = molecular target: T1, human NTCP; assay: Screening taurocholate uptake assay (96-well, [14C]taurocholate, 10 µM drug)
[3] = Prestwick library screen, 10 µM drug, B-score of Myrcludex B-FITC binding
[4] = Prestwick library screen, 10 µM drug, B-score of taurocholate uptake
[5] = combined ranking from functional and binding assay B-scores
[6] = Prestwick library screen, Myrcludex B-FITC binding, 10 µM drug
[7] = Prestwick library screen, taurocholate uptake, 10 µM drug
[8] = ranking score beside the functional and binding assay B-scores of the screen
[9] = screen, 10 µM drug, Myrcludex B-FITC binding
[10] = combined ranking from functional and binding screening assays
[11] = screen, 10 µM drug, taurocholate uptake

SMILES	B-score binding assay [1, 3]	B-score functional assay [2, 4]	Ranking score [2, 5]	B-score binding assay [1, 6]	B-score functional assay [2, 7]	Ranking score [2, 8]	B-score binding assay [1, 9]	Ranking score [2, 10]	B-score functional assay [2, 11]	further results
COC(=O)N/N=C/c1c[n+]([O-])c2ccccc2[n+]1[O-] [Carbadox]	0.674	0.663	963.5	–	–	–	–	–	–	–
NC(=O)N1c2ccccc2C=Cc2ccccc21 [Carbamazepine]	–	–	–	0.183	-0.062	671.795	–	–	–	–
CCN(CC)CCOCCOC(=O)C1(c2ccccc2)CCCC1 [Carbetapentane citrate]	1.7	0.114	943.43	–	–	–	–	–	–	–
CN(C)CCOC(c1ccc(Cl)cc1)c1ccccn1.O=C(O)/C=C\C(=O)O (stereo not drawn) [Carbinoxamine maleate salt]	–	–	–	–	–	–	-1.565	433.532	3.2	–
CCCC(C)(COC(N)=O)COC(=O)NC(C)C (stereo not drawn) [Carisoprodol]	–	–	–	3.83	-0.248	768.775	–	–	–	–
CCCCCCNC(=O)n1cc(F)c(=O)[nH]c1=O [Carmofur]	–	–	–	–	–	–	0.877	358.68	-2.036	–
CC(C(=O)O)c1ccc2c(c1)[nH]c1ccc(Cl)cc12 (stereo not drawn) [Carprofen]	–	–	–	–	–	–	0.048	288.205	-2.152	–
COc1ccccc1OCCNCC(O)COc1cccc2[nH]c3ccccc3c12 (stereo not drawn) [Carvedilol]	–	–	–	–	–	–	-0.836	348.775	-0.341	–
CCC1=C[C@@H]2CN3CCc4c([nH]c5ccccc45)[C@@](C(=O)OC)(C2)[C@@H]13 [Catharanthine]	–	–	–	–	–	–	-0.047	448.328	-0.613	–
N[C@@H](C(=O)N[C@@H]1C(=O)N2C(C(=O)O)=C(Cl)CS[C@H]12)c1ccccc1.O [Cefaclor hydrate]	–	–	–	–	–	–	-0.309	381.916	-0.668	–
CC1=C(C(=O)O)N2C(=O)[C@@H](NC(=O)[C@H](N)c3ccc(O)cc3)[C@H]2SC1 [Cefadroxil]	–	–	–	–	–	–	-0.675	439.805	-0.032	–
Cc1nnc(SCC2=C(C(=O)O)N3C(=O)[C@@H](NC(=O)Cn4cnnn4)[C@H]3SC2)s1 [Cefazolin sodium salt]	–	–	–	0.04	0.093	718.895	–	–	–	–
CO/N=C(\C(=O)N[C@@H]1C(=O)N2C(C(=O)O)=C(COC(C)=O)CS[C@H]12)c1csc(N)n1 [Cefotaxime sodium salt]	–	–	–	–	–	–	-1.895	382.157	3.35	–
CO[C@@]1(NC(=O)C2SC(=C(C(N)=O)C(=O)O)S2)C(=O)N2C(C(=O)O)=C(CSc3nnnn3C)CS[C@@H]21 (stereo partly drawn) [Cefotetan]	–	–	–	-0.646	4.862	655.496	–	–	–	–
CO[C@@]1(NC(=O)Cc2cccs2)C(=O)N2C(C(=O)O)=C(COC(N)=O)CS[C@@H]21 [Cefoxitin sodium salt]	0.041	1.114	868.493	–	–	–	–	–	–	–
CC=CC1=C(C(=O)O)N2C(=O)[C@@H](NC(=O)[C@H](N)c3ccc(O)cc3)[C@H]2SC1 [Cefprozil]	–	–	–	–	–	–	-1.441	364.678	0.201	–
NC(=O)c1cc[n+](CC2=C(C(=O)O)N3C(=O)[C@@H](NC(=O)[C@@H](c4ccccc4)S(=O)(=O)[O-])[C@H]3SC2)cc1 [Cefsulodin sodium salt]	–	–	–	-0.269	0.682	669.358	–	–	–	–
Nc1nc(/C(=C/CC(=O)O)C(=O)N[C@@H]2C(=O)N3C(C(=O)O)=CCS[C@H]23)cs1 [Ceftibuten]	1.253	0.671	1026.13	–	–	–	–	–	–	–
CO/N=C(\C(=O)N[C@@H]1C(=O)N2C(C(=O)O)=C(COC(N)=O)CS[C@H]12)c1ccco1 [Cefuroxime sodium salt]	–	–	–	-0.123	0.233	660.887	–	–	–	–
Cc1ccc(-c2cc(C(F)(F)F)nn2-c2ccc(S(N)(=O)=O)cc2)cc1 [Celecoxib]	–	–	–	0.033	0.148	728.485	–	–	–	–
CCN(CC)C(=O)Nc1ccc(OCC(O)CNC(C)(C)C)c(C(C)=O)c1 (stereo not drawn) [Celiprolol HCl]	1.474	0.793	1068.26	–	–	–	–	–	–	–

SMILES	B-score binding assay [1, 3]	B-score functional assay [2, 4]	Ranking score [2, 5]	B-score binding assay [1, 6]	B-score functional assay [2, 7]	Ranking score [2, 8]	B-score binding assay [1, 9]	Ranking score [2, 10]	B-score functional assay [2, 11]	further results
CC(=O)OCC1=C(C(=O)O)N2C(=O)[C@@H](N)[C@H]2SC1 [Cephalosporanic acid, 7-amino]	0.15	0.531	845.501	–	–	–	–	–	–	–
CC(=O)OCC1=C(C(=O)O)N2C(=O)[C@@H](NC(=O)Cc3cccs3)[C@H]2SC1 [Cephalothin sodium salt]	–	–	–	–	–	–	0.561	427.172	-1.381	–
O=C(O)COCCN1CCN(C(c2ccccc2)c2ccc(Cl)cc2)CC1 (stereo not drawn) [Cetirizine dihydrochloride]	–	–	–	0.001	0.907	820.204	–	–	–	–
CN1C(=O)CCS(=O)(=O)C1c1ccc(Cl)cc1 (stereo not drawn) [Chlormezanone]	1.516	0.286	979.274	–	–	–	–	–	–	–
CN(C)CCN(Cc1ccc(Cl)cc1)c1ccccn1.Cl [Chloropyramine hydrochloride]	–	–	–	–	–	–	2.853	387.298	-2.146	–
CCN(CC)CCCC(C)Nc1ccnc2cc(Cl)ccc12 (stereo not drawn) [Chloroquine diphosphate]	–	–	–	–	–	–	–	–	–	B-score binding assay [1]: 0.002; B-score functional assay [2]: 0.222; Ranking score [2]: 726.833
NS(=O)(=O)c1cc2c(cc1Cl)N=CNS2(=O)=O [Chlorothiazide]	0.263	1.41	967.179	–	–	–	–	–	–	–
COc1ccc(C(Cl)=C(c2ccc(OC)cc2)c2ccc(OC)cc2)cc1 [Chlorotrianisene]	1.19	0.481	983.616	–	–	–	–	–	–	–
CN(C)CCC(c1ccc(Cl)cc1)c1ccccn1 (stereo not drawn) [Chlorpheniramine maleate]	1.318	1.245	1106.99	–	–	–	–	–	–	–
CCCNC(=O)NS(=O)(=O)c1ccc(Cl)cc1 [Chlorpropamide]	–	–	–	-0.165	1.589	766.984	–	–	–	–
CN(C)CC/C=C1/c2ccccc2Sc2ccc(Cl)cc21 [Chlorprothixene hydrochloride]	–	–	–	-0.184	0.429	661.498	–	–	–	–
CN(C)[C@@H]1C(O)=C(C(N)=O)C(=O)[C@@]2(O)C(O)=C3C(=O)c4c(O)ccc(Cl)c4[C@@](C)(O)[C@H]3C[C@@H]12 [Chlortetracycline hydrochloride]	–	–	–	0.571	-0.045	738.786	–	–	–	–
Cc1cc(C2CCCCC2)n(O)c(=O)c1.NCCO [Ciclopirox ethanolamine]	1.631	0.776	1078.72	–	–	–	–	–	–	–
O=C1CCc2cc(OCCCCc3nnnn3C3CCCCC3)ccc2N1 [Cilostazol]	–	–	–	–	–	–	-0.418	446.637	-0.174	–
COc1ccc(C[C@@H]2c3cc(OC)c(OC)cc3CC[N@+]2(C)CCC(=O)OCCCCCOC(=O)CC[N@@+]2(C)CCc3cc(OC)c(OC)cc3[C@H]2Cc2ccc(OC)c(OC)c2)cc1OC [Cisatracurium besylate]	–	–	–	-0.016	0.628	764.984	–	–	–	–
CC[C@H]1OC(=O)[C@H](C)[C@@H](O[C@H]2C[C@@](C)(OC)[C@@H](O)[C@H](C)O2)[C@H](C)[C@@H](O[C@@H]2O[C@H](C)C[C@H](N(C)C)[C@H]2O)[C@](C)(OC)C[C@@H](C)C(=O)[C@H](C)[C@@H](O)[C@]1(C)O [Clarithromycin]	–	–	–	–	–	–	0.501	370.485	-1.781	–
O=C([O-])[C@H]1/C(=C/CO)O[C@@H]2CC(=O)N21.[K+] [Clavulanate potassium salt]	2.079	0.008	886.007	–	–	–	–	–	–	–
COc1cc(N)c(Cl)cc1C(=O)NC1CCN(Cc2ccccc2)CC1 [Clebopride maleate]	–	–	–	-0.092	0.453	697.485	–	–	–	–
Cl.Clc1ccc(Cn2c(CN3CCCC3)nc3ccccc32)cc1 [Clemizole hydrochloride]	–	–	–	–	–	–	-1.618	418.626	2.268	–
C[N+]12CCC(CC1)C(OC(=O)C(O)(c1ccccc1)c1ccccc1)C2 (stereo not drawn) [Clidinium bromide]	0.853	0.121	877.232	–	–	–	–	–	–	–
NC1CCN(c2c(F)cc3c(=O)c(C(=O)O)cn(C4CC4)c3c2Cl)C1 (stereo not drawn) [Clinafloxacin]	–	–	–	–	–	–	-1.253	295.014	-0.349	–
